Laboratory results taken from patent US20240010913A1, “RED FLUORESCENT SENSOR COMPOUNDS FOR THE DETECTION OF METAL IONS” (FEMTONICS KFT., priority 2020, published 2024).
“Also recorded” adds a separate entry of the source. Blank lines part the entries; values can stand above or below the compound they belong to.

Legend:
[1] = cited from earlier work
[2] = cited from earlier work; remark: listed apart in the source
[3] = UV-VIS absorption spectra; assay type: physicochemical
Method: (§1) Fluorescent spectra were recorded on an FLS920 Fluorescence Spectrometer from Edinburgh Instrument. A quartz cuvette with 3 mL volume and 1 cm length was used. Absorption spectra were recorded on a ThermoFisher NanoDrop 1000 Spectrophotometer. The two-photon measurements were performed on the custom Femtonics Dobos Dual system using a water immersion lens, a Mai Tai High-Power laser operated at 50 mW. For processing the images, ImageJ software was used.

[4] = Aqueous solution: fluorescence and colour on addition of aqueous 1 mM ZnCl2; assay type: physicochemical; conditions: for colour of the aqueous solution / fluorescence of the solution upon irradiation: upon addition of aqueous 1 mM ZnCl2; for fluorescence of the aqueous solution: without Zn
[5] = Solubility of the product (qualitative); assay type: physicochemical
[6] = Fluorescent spectra in the presence of various Zn ion concentration (Zn-titration); assay type: physicochemical; conditions: 0.1 M HEPES buffer pH 7.4
Method: as §1
FIG. 1. Fluorescence spectra of compound 28 pH 7.4 (0.1 M) HEPES buffer containing different amounts of Zn^2+. Values are not normalized, spectra were recorded at the maximum excitation wavelength.
FIG. 5. Fluorescence spectra of the compound of 29 in 0.1 M HEPES buffer (pH 7.4) containing different amounts of Zn^2+.
FIG. 7. Fluorescence spectra of the compound of 31 in pH 7.4 (0.1 M) HEPES buffer containing different amounts of Zn^2+.
FIG. 9. Fluorescence spectra of the compound of 30 in pH 7.4 (0.1 M) HEPES buffer containing different amounts of Zn^2+ ion.

[7] = Ion screening (fluorescence), Zn2+; assay type: physicochemical; conditions: for selectivity towards Zn ion: vs Ca2+, Mg2+, Na+, K+, Fe3+, Cu2+, Sn2+, Cd2+, Pb2+
[8] = Ion screening (fluorescence), Cd2+; assay type: physicochemical
[9] = Ion screening (fluorescence), Ca2+; assay type: physicochemical
[10] = Ion screening (fluorescence), Sn2+; assay type: physicochemical

UV spectra maximum wavelength [3]: around 472 nm
Stokes shift ([3]; between UV maximum and emission maximum): 73 nm
solubility in DMSO [5]: Soluble
solubility in alcohols [5]: Soluble
solubility in water [5]: moderately soluble
maximum emitted wavelength [6]: around 545 nm
SMILES: O=C1NC(Nc2ccccc2)=N/C1=C\c1ccc2cccc(O)c2n1 [compound 28, (Z)-5-((8-hydroxyquinolin-2-yl)methylene)-2-(phenylamino)-3,5-dihydro-4H-imidazol-4-one]
colour of the aqueous solution [4]: colour changes to yellow
fluorescence of the solution upon irradiation [4]: emits fluorescence
fluorescence of the aqueous solution [4]: emits no fluorescence

UV spectra extends over [3]: over 500 nm
solubility in DMSO [5]: Soluble
solubility in alcohols [5]: Soluble
solubility in water [5]: Soluble
SMILES: CN(C)c1cccc2ccc(/C=C3\N=C(Nc4ccccc4)NC3=O)nc12 [compound 29, (Z)-5-((8-(dimethylamino)quinolin-2-yl)methylene)-2-(phenylamino)-3,5-dihydro-4H-imidazol-4-one]
colour of the aqueous solution [4]: colour changes to greenish
fluorescence of the solution upon irradiation [4]: emits fluorescence
fluorescence of the aqueous solution [4]: emits no fluorescence
Zn/Ca fluorescence ratio [7]: excellent
fluorescence in ion screening [7]: strong green fluorescence
selectivity towards Zn ion [7]: strong selectivity

UV spectra extends over [3]: over 500 nm
UV spectra maximum wavelength [3]: around 476 nm
solubility in DMSO [5]: Soluble
solubility in alcohols [5]: Soluble
solubility in water [5]: moderately soluble
maximum emitted wavelength [6]: around 555 nm
SMILES: CN(C)CCN(C)c1cccc2ccc(/C=C3\N=C(Nc4ccccc4)NC3=O)nc12 [compound 30, (Z)-5-((8-((2-(dimethylamino)ethyl)(methyl)amino)quinolin-2-yl)methylene)-2-(phenylamino)-3,5-dihydro-4H-imidazol-4-one]
colour of the aqueous solution [4]: colour gets brighter
fluorescence of the solution upon irradiation [4]: emits fluorescence
fluorescence of the aqueous solution [4]: emits no fluorescence
fluorescence in ion screening [7]: strong green fluorescence
fluorescence intensity in ion screening [7]: lower intensity
selectivity towards Zn ion [7]: strong selectivity

UV spectra extends over [3]: over 500 nm
UV spectra maximum wavelength [3]: around 481 nm
solubility in DMSO [5]: Soluble
solubility in alcohols [5]: Soluble
solubility in water [5]: moderately soluble
maximum emitted wavelength [6]: around 545 nm
SMILES: CN(Cc1ccccn1)c1cccc2ccc(/C=C3\N=C(Nc4ccccc4)NC3=O)nc12 [compound 31, (Z)-5-((8-(methyl(pyridin-2-ylmethyl)amino)quinolin-2-yl)methylene)-2-(phenylamino)-3,5-dihydro-4H-imidazol-4-one]
selectivity against Cd2+ [8]: weak
colour of the aqueous solution [4]: colour changes to yellow
fluorescence of the solution upon irradiation [4]: emits fluorescence
fluorescence of the aqueous solution [4]: emits no fluorescence
Zn/Ca fluorescence ratio [7]: good
fluorescence in ion screening [7]: strong green fluorescence
selectivity towards Zn ion [7]: good selectivity

solubility in DMSO [5]: Soluble
solubility in alcohols [5]: Soluble
solubility in water [5]: moderately soluble
SMILES: COc1cccc2ccc(/C=C3\N=C(Nc4ccccc4)NC3=O)nc12 [compound 32, (Z)-5-((8-methoxyquinolin-2-yl)methylene)-2-(phenylamino)-3,5-dihydro-4H-imidazol-4-onen]
colour of the aqueous solution [4]: colour changes to green
fluorescence of the solution upon irradiation [4]: emits fluorescence
fluorescence of the aqueous solution [4]: emits no fluorescence

solubility in DMSO [5]: soluble
solubility in THF [5]: Moderately soluble
solubility in the mixture of DMSO and water [5]: soluble
SMILES: O=C1NC(Nc2ccccc2)=N/C1=C\c1ccc2ccc3cccnc3c2n1 [compound 34, (Z)-5-((1,10-phenanthrolin-2-yl)methylene)-2-(phenylamino)-3,5-dihydro-4H-imidazol-4-one]

solubility in DMSO [5]: soluble
solubility in THF [5]: Moderately soluble
solubility in the mixture of DMSO and water [5]: soluble
SMILES: O=C1N=C(Nc2ccccc2)N/C1=C\c1ccc2ccc3ccc(/C=C4\NC(Nc5ccccc5)=NC4=O)nc3c2n1 [compound 35, (5Z,5′Z)-5,5′-((1,10-phenanthroline-2,9-diyl)bis(methanylylidene))bis(2-(phenylamino)-1,5-dihydro-4H-imidazol-4-one)]

The next lines start with the compound.

SMILES: Oc1cccc2cccnc12 [8-hydroxyquinoline]
specificity / selectivity [1]: low

SMILES: Cc1cc(/C=N/c2cccc3cccnc23)c(O)c(CO)c1 [HQMP]
solubility / water-solubility [2]: Poor water-solubility

SMILES: O=C(CNNC(=O)c1ccccc1)Nc1cccc2cccnc12 [QLNPY]
quenching ([1]; by PPi and S^2−): quenched by PPi
specificity / selectivity [1]: not selective for Cd^2+

SMILES: COc1cc(NS(=O)(=O)c2ccc(C)cc2)c2ncccc2c1 [TSQ, 6-methoxy-(8-p-toluenesulfonamido)quinoline]
solubility / water-solubility [2]: poor water-

SMILES: CCOC(=O)COc1cc(NS(=O)(=O)c2ccc(C)cc2)c2nc(C)ccc2c1 [Zinquin Ester]
solubility / water-solubility [2]: weak solubility; also recorded: excitation, poor water-solubility

SMILES: O=C(O)CN(CC(=O)O)c1cccc2ccc(/C=C3\N=C(Nc4ccccc4)NC3=O)nc12 [compound 33, (Z)-2,2′-((2-((5-oxo-2-(phenylamino)-1,5-dihydro-4H-imidazol-4-ylidene)methyl)quinolin-8-yl)azanediyl)diacetic acid]
fluorescence with Ca2+ ion [9]: increased fluorescence intensity
turn on by Sn2+ [10]: turn on the sensor
turn on in the presence of Zn2+ [7]: does not turn on
